pIC50: −log10 of the molar value.
molecular target: human mOR (Homo sapiens (Human), UniProt P35372); assay: cell-based; settings: not given
Description: CHO Tag-lite human mOR stable cell line from Cisbio (NCBI accession number: NM_000914.3, Bedford, Mass.) were seeded and grown to approximately 80% confluence in Ham F-12 with 10% FBS, 50 U/ml penicillin, 50 μg/ml streptomycin, 2 mM Hepes, and 1 mg/ml geneticin (Invitrogen, Carlsbad, Calif.). Cells were then harvested using accutase (Corning. Coming, N.Y.), centrifuged at 1300 RPM for 5 min, and plated at 5000 cells per 5 μL per well in a 5× dilution of stimulation buffer consisting of the HTRF cAMP Gi kit, water and IBMX at 0.5 mM (Cisbio, Bedford, Mass.) in white HTRF low volume 384 well plates (Cisbio, Bedford, Mass.). Plates were then incubated at 37° C. in 5% CO2 for 10 minutes. For the agonist assay, forskolin was added to a final concentration of 4 μM. […] Test compounds were dissolved in DMSO and water, and then serially diluted to working concentrations such that the concentration of DMSO was less than 0.1%. Diluted test compounds were added at 2.5 μL per well, and plates were incubated at 37° C., and 5% CO2 for 15 minutes, and then at room temperature for 15 minutes. Next 5 μl/well of cAMP Eu-cryptate and 5 μl/well of anti-cAMP-d2 (both diluted 1:20 in lysis buffer) were added, and plates were incubated at room temperature for 1 hour. Following incubation, plates were read in a Synergy Neo2 multi-mode reader (Biotek, Winooski, Vt.). […] For the agonist assay, data was normalized using the maximal DAMGO response. Measurements were performed in triplicate and the dose response was fit using nonlinear regression.

Sequence of human mOR (P35372 whole entry): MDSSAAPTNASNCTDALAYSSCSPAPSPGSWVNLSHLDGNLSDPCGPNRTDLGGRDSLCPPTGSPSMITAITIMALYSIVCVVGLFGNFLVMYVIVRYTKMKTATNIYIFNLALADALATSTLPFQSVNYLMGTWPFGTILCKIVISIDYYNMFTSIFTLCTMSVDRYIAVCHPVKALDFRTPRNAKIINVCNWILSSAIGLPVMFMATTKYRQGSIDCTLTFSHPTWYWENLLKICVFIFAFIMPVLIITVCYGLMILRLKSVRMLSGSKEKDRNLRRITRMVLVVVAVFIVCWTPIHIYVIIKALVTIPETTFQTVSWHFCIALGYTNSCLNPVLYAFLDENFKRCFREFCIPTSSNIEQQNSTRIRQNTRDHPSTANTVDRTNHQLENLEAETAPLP

Compound | pIC50
CNC(=O)c1ccc(C[C@@H](CNC(=O)CC(c2cccnc2)C2(C(F)(F)F)CC2)N(C)C)c(Cl)c1F (stereo in doubt) [Compound 109, 3-chloro-4-((S)-2-(dimethylamino)-3-((S)-3-(pyridin-3-yl)-3-(1-(trifluoromethyl)cyclopropyl)propanamido)propyl)-2-fluoro-N-methylbenzamide] | > 6.52
CNC(=O)c1ccc(C[C@@H](CNC(=O)CC(c2cccnc2)C2(C(F)(F)F)CC2)N(C)C)c(C)c1F (stereo in doubt) [Compound 124, 4-((S)-2-(dimethylamino)-3-((S)-3-(pyridin-3-yl)-3-(1-(trifluoromethyl)cyclopropyl)propanamido)propyl)-2-fluoro-N,3-dimethylbenzamide] | < 5.52
CNC(=O)c1ccc(C[C@@H](CNC(=O)CC(c2ccncc2)C2(C(F)(F)F)CC2)N(C)C)c(C)c1 (stereo in doubt) [Compound 130, 4-((S)-2-(dimethylamino)-3-((S)-3-(pyridin-4-yl)-3-(1-(trifluoromethyl)cyclopropyl)propanamido)propyl)-N,3-dimethylbenzamide] | > 6.52
Cc1ncc([C@@H](CC(=O)NC[C@H](Cc2ccc(C(N)=O)c(F)c2F)N(C)C)C2(C(F)(F)F)CC2)s1 [Compound 1, 4-((S)-2-(dimethylamino)-3-((S)-3-(2-methylthiazol-5-yl)-3-(1-(trifluoromethyl)cyclopropyl)propanamido)propyl)-2,3-difluorobenzamide] | > 6.52
Cc1ncc([C@@H](CC(=O)NC[C@H](Cc2ccc(C(N)=O)c(F)c2F)N(C)C)C2(C(F)(F)F)CC2)cn1 [Compound 3, 4-((S)-2-(dimethylamino)-3-((R)-3-(2-methylpyrimidin-5-yl)-3-(1-(trifluoromethyl)cyclopropyl)propanamido)propyl)-2,3-difluorobenzamide] | > 6.52
Cc1ccc([C@@H](CC(=O)NC[C@H](Cc2ccc(C(N)=O)c(F)c2F)N(C)C)C2(C(F)(F)F)CC2)cn1 [Compound 4, 4-((S)-2-(dimethylamino)-3-((R)-3-(6-methylpyridin-3-yl)-3-(1-(trifluoromethyl)cyclopropyl)propanamido)propyl)-2,3-difluorobenzamide] | > 6.52
CN(C)[C@H](CNC(=O)C[C@@H](c1ncc(Cl)cn1)C1(C(F)(F)F)CC1)Cc1cc(F)c(C(N)=O)cc1F [Compound 5, 4-[(2S)-3-[(3R)-3-(5-chloropyrimidin-2-yl)-3-[1-(trifluoromethyl)cyclopropyl]propanamido]-2-(dimethylamino)propyl]-2,5-difluorobenzamide] | 5.52 to 6.52
Cc1ncc([C@@H](CC(=O)NC[C@H](Cc2ccc(C(N)=O)c(F)c2Cl)N(C)C)C2(C(F)(F)F)CC2)s1 [Compound 16, 3-chloro-4-[(2S)-2-(dimethylamino)-3-[(3S)-3-(2-methyl-1,3-thiazol-5-yl)-3-[1-(trifluoromethyl)cyclopropyl]propanamido]propyl]-2-fluorobenzamide] | > 6.52
CN(C)[C@H](CNC(=O)CC(c1ccncc1)C1(C(F)(F)F)CC1)Cc1ccc(C(N)=O)c(F)c1Cl (stereo partly drawn) [Compound 19, 3-chloro-4-[(2S)-2-(dimethylamino)-3-[3-(pyridin-4-yl)-3-[1-(trifluoromethyl)cyclopropyl]propanamido]propyl]-2-fluorobenzamide] | > 6.52
CN(C)[C@H](CNC(=O)CC(c1ccncc1)C1(C(F)(F)F)CC1)Cc1ccc(C(N)=O)cc1Cl (stereo partly drawn) [Compound 26, 3-chloro-4-[(2S)-2-(dimethylamino)-3-[3-(pyridin-4-yl)-3-[1-(trifluoromethyl)cyclopropyl]propanamido]propyl]benzamide] | > 6.52
CN(C)[C@H](CNC(=O)CC(c1ncccn1)C1(C(F)(F)F)CC1)Cc1ccc(C(N)=O)cc1Cl (stereo partly drawn) [Compound 27, 3-chloro-4-((2S)-2-(dimethylamino)-3-(3-(pyrimidin-2-yl)-3-(1-(trifluoromethyl)cyclopropyl)propanamido)propyl)benzamide] | > 6.52
CN(C)c1ncc(C(CC(=O)NC[C@H](Cc2ccc(C(N)=O)cc2Cl)N(C)C)C2(C(F)(F)F)CC2)cn1 (stereo partly drawn) [Compound 29, 3-chloro-4-[(2S)-2-(dimethylamino)-3-{3-[2-(dimethylamino)pyrimidin-5-yl]-3-[1-(trifluoromethyl)cyclopropyl]propanamido}propyl]benzamide] | > 6.52
CN(C)[C@H](CNC(=O)CC(c1cncnc1)C1(C(F)(F)F)CC1)Cc1ccc(C(N)=O)cc1Cl (stereo partly drawn) [Compound 30, 3-chloro-4-[(2S)-2-(dimethylamino)-3-[3-(pyrimidin-5-yl)-3-[1-(trifluoromethyl)cyclopropyl]propanamido]propyl]benzamide] | > 6.52
CN(C)[C@H](CNC(=O)CC(c1ncc(Cl)cn1)C1(C(F)(F)F)CC1)Cc1ccc(C(N)=O)cc1Cl (stereo partly drawn) [Compound 31, 3-chloro-4-[(2S)-3-[3-(5-chloropyrimidin-2-yl)-3-[1-(trifluoromethyl)cyclopropyl]propanamido]-2-(dimethylamino)propyl]benzamide] | > 6.52
Cc1ncc([C@@H](CC(=O)NC[C@H](Cc2ccc(C(N)=O)c(F)c2C)N(C)C)C2CC2)cn1 [Compound 42, 4-((S)-3-((S)-3-cyclopropyl-3-(2-methylpyrimidin-S-yl)propanamido)-2-(dimethylamino)propyl)-2-fluoro-3-methylbenzamide] | < 5.52
Cc1ncc([C@@H](CC(=O)NC[C@H](Cc2ccc(C(N)=O)c(F)c2C)N(C)C)C2(C(F)(F)F)CC2)s1 [Compound 43, 4-((S)-2-(dimethylamino)-3-((S)-3-(2-methylthiazol-5-yl)-3-(1-(trifluoromethyl)cyclopropyl)propanamido)propyl)-2-fluoro-3-methylbenzamide] | > 6.52
Cc1ncc([C@@H](CC(=O)NC[C@H](Cc2ccc(C(N)=O)c(F)c2C)N(C)C)C2(C(F)(F)F)CC2)cn1 [Compound 44, 4-((S)-2-(dimethylamino)-3-((R)-3-(2-methylpyrimidin-5-yl)-3-(1-(trifluoromethyl)cyclopropyl)propanamido)propyl)-2-fluoro-3-methylbenzamide] | > 6.52
Cc1c(C[C@@H](CNC(=O)C[C@@H](c2cncc(F)c2)C(C)(C)C)N(C)C)ccc(C(N)=O)c1F [Compound 45, 4-((S)-2-(dimethylamino)-3-((R)-3-(5-fluoropyridin-3-yl)-4,4-dimethylpentanamido)propyl)-2-fluoro-3-methylbenzamide] | > 6.52
Cc1ccc([C@@H](CC(=O)NC[C@H](Cc2ccc(C(N)=O)c(F)c2C)N(C)C)C2(C(F)(F)F)CC2)cn1 [Compound 46, 4-((S)-2-(dimethylamino)-3-((R)-3-(6-methylpyridin-3-yl)-3-(1-(trifluoromethyl)cyclopropyl)propanamido)propyl)-2-fluoro-3-methylbenzamide] | > 6.52
Cc1ccc([C@@H](CC(=O)NC[C@H](Cc2cc(F)c(C(N)=O)c(F)c2)N(C)C)C2(C(F)(F)F)CC2)cn1 [Compound 47, 4-((S)-2-(dimethylamino)-3-((R)-3-(6-methylpyridin-3-yl)-3-(1-(trifluoromethyl)cyclopropyl)propanamido)propyl)-26-difluorobenzamide] | > 6.52
Cc1ncc([C@@H](CC(=O)NC[C@H](Cc2cc(F)c(C(N)=O)c(F)c2)N(C)C)C2(C(F)(F)F)CC2)cn1 [Compound 48, 4-((S)-2-(dimethylamino)-3-((R)-3-(2-methylpyrimidin-5-yl)-3-(1-(trifluoromethyl)cyclopropyl)propanamido)propyl)-2,6-difluorobenzamide] | < 5.52
CN(C)[C@H](CNC(=O)CC(c1cccnc1)C1(C(F)(F)F)CC1)Cc1cc(F)c(C(N)=O)c(F)c1 (stereo partly drawn) [Compound 50, 4-[(2S)-2-(dimethylamino)-3-[3-(pyridin-3-yl)-3-[1-(trifluoromethyl)cyclopropyl]propanamido]propyl]-2,6-difluorobenzamide] | < 5.52
CN(C)[C@H](CNC(=O)C[C@H](c1ccoc1)C1(C(F)(F)F)CC1)Cc1ccc(C(N)=O)c(F)c1 [Compound 51, 4-((S)-2-(dimethylamino)-3-((R)-3-(furan-3-yl)-3-(1-(trifluoromethyl)cyclopropyl)propanamido)propyl)-2-fluorobenzamide] | > 6.52
Cc1cc([C@@H](CC(=O)NC[C@H](Cc2ccc(C(N)=O)c(F)c2)N(C)C)C2(C(F)(F)F)CC2)cs1 [Compound 52, 4-((S)-2-(dimethylamino)-3-((S)-3-(5-methylthiophen-3-yl)-3-(1-(trifluoromethyl)cyclopropyl)propanamido)propyl)-2-fluorobenzamide] | > 6.52

same assay, conditions: CHO Tag-lite human mOR stable cell line; forskolin 4 μM and DAMGO at EC90; read-out: mOR cAMP Antagonist Assay IC50

Compound | pIC50
CNC(=O)c1ccc(C[C@@H](CNC(=O)C[C@@H](c2ccncc2)C2(C(F)(F)F)CC2)N(C)C)c(Cl)c1F (single isomer, unassigned) [Compound 111] | > 6.52
CN(C)[C@H](CNC(=O)C[C@H](c1cncs1)C1(C(F)(F)F)CC1)Cc1ccc(C(N)=O)c(F)c1F [Compound 2, 4-((S)-2-(dimethylamino)-3-((S)-3-(thiazol-5-yl)-3-(1-(trifluoromethyl)cyclopropyl)propanamido)propyl)-2,3-difluorobenzamide] | > 6.52
